Assay results reported in ChEMBL document CHEMBL2062364, “Discovery and optimization of new benzimidazole- and benzoxazole-pyrimidone selective PI3Kβ inhibitors for the treatment of phosphatase and TENsin homologue (PTEN)-deficient cancers” (J Med Chem, 2012).
≈ marks a conversion by molar mass, not a printed value.

Assays:
[1] = AUC (0 to infinity) in CB17/ICR-Prkdc SCID mouse at 6 mg/kg, iv; type: ADME, organism-based; design: time infinity, dose 6 mg/kg, route intravenous; conditions: plasma
Mus musculus [2] = experiment: Inhibition of Akt phosphorylation at T308 residue in plasma of po dosed SCID mouse bearing human PTEN-deficient PC3 cells administered BID; type: functional, organism-based; conditions: PC-3, Plasma
[3] = Cmax in CB17/ICR-Prkdc SCID mouse at 10 mg/kg, po; type: ADME, organism-based; design: dose 10 mg/kg, route oral; conditions: in vivo
[4] = target: T1, Phosphatidylinositol 4,5-bisphosphate 3-kinase catalytic subunit delta isoform (Homo sapiens, UniProt O00329); experiment: Inhibition of human PI3Kdelta-mediated Akt phosphorylation at Ser473 residue expressed in mouse MEF-3T3 cells after 0.5 to 2 hrs by Western blot analysis; type: cell-based
T1 sequence (O00329 whole entry): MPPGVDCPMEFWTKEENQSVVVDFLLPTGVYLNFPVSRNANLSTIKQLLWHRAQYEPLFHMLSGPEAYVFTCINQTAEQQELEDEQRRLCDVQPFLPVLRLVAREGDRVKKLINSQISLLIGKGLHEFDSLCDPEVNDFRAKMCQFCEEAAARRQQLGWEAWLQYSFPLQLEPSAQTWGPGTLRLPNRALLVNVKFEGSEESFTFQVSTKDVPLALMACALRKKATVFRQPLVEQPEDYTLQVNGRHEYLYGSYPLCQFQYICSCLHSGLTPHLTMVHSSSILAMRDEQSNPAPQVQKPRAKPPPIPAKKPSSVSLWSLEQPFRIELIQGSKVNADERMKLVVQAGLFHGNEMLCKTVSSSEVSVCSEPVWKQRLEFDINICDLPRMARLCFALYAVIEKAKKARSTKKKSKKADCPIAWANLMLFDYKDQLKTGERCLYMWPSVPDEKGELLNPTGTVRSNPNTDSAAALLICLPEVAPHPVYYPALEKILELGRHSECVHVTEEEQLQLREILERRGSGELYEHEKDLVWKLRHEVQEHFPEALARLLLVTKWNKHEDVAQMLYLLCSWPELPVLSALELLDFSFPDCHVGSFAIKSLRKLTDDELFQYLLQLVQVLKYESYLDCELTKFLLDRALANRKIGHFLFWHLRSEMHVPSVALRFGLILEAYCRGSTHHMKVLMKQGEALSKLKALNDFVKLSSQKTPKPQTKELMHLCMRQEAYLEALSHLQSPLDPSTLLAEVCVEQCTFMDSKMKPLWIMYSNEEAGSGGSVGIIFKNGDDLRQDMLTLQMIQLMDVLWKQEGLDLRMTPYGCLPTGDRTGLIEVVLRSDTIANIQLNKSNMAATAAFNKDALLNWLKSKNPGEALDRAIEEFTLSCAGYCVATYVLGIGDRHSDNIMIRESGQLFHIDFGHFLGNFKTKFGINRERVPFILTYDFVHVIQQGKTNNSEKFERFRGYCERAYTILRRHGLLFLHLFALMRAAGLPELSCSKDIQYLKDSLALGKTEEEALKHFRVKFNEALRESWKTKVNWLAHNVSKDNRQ

[5] = target: Phosphatidylinositol 4,5-bisphosphate 3-kinase catalytic subunit alpha isoform (Homo sapiens, UniProt P42336); experiment: Inhibition of N-terminus poly-His tagged human PI3Kalpha expressed in baculovirus infected insect sf9 cells coexpressing p85alpha using PI(4,5)P2 as substrate preincubated with compound for 15 mins measured after 10 mins by HTRF assay
Phosphatidylinositol 4,5-bisphosphate 3-kinase catalytic subunit alpha isoform, sequence (P42336 whole entry, canonical isoform): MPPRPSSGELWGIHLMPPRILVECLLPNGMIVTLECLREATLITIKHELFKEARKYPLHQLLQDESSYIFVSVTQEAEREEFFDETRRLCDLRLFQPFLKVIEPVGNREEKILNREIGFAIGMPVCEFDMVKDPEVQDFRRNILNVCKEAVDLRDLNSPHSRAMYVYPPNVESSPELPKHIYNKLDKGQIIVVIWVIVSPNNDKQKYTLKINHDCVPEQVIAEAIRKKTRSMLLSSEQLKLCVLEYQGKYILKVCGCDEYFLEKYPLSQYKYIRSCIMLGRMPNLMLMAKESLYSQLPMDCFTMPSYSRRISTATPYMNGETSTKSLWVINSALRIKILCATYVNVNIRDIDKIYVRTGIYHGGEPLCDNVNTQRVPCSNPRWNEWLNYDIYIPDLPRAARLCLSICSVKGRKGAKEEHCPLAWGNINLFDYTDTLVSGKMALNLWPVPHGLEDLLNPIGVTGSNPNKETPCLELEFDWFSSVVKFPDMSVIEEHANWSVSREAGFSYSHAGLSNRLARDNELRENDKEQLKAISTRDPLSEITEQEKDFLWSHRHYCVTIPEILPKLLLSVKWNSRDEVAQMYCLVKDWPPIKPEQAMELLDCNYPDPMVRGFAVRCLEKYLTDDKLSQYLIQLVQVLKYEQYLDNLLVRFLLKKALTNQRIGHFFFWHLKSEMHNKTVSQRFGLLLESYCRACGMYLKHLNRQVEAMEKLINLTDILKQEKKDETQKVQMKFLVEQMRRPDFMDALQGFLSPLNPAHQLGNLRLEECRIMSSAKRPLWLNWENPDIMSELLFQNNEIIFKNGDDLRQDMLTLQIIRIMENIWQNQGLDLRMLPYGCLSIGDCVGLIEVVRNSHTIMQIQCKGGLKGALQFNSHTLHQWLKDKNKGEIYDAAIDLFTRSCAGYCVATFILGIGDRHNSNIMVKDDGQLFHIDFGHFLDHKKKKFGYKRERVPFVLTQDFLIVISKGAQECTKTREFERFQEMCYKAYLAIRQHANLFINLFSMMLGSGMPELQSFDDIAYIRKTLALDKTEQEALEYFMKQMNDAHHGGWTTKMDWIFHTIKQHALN

Plasma = experiment: Plasma concentration in SCID mouse xenografted with PTEN-deficient human PC3 cells at 300 mg/kg, po BID measured after day 4; type: ADME, organism-based, PC-3; design: dose 300 mg/kg, route oral; conditions: in vivo
[6] = AUC (0 to 24 hrs) in CB17/ICR-Prkdc SCID mouse at 6 mg/kg, iv; type: ADME, organism-based; design: time < 24 hr, dose 6 mg/kg, route intravenous; conditions: plasma
[7] = target: Phosphatidylinositol 4,5-bisphosphate 3-kinase catalytic subunit gamma isoform (Homo sapiens, UniProt P48736); experiment: Inhibition of human PI3Kgamma-mediated Akt phosphorylation at Ser473 residue expressed in mouse RAW264.7 cells after 0.5 to 2 hrs by Western blot analysis; type: cell-based
Phosphatidylinositol 4,5-bisphosphate 3-kinase catalytic subunit gamma isoform, sequence (P48736 whole entry, canonical isoform): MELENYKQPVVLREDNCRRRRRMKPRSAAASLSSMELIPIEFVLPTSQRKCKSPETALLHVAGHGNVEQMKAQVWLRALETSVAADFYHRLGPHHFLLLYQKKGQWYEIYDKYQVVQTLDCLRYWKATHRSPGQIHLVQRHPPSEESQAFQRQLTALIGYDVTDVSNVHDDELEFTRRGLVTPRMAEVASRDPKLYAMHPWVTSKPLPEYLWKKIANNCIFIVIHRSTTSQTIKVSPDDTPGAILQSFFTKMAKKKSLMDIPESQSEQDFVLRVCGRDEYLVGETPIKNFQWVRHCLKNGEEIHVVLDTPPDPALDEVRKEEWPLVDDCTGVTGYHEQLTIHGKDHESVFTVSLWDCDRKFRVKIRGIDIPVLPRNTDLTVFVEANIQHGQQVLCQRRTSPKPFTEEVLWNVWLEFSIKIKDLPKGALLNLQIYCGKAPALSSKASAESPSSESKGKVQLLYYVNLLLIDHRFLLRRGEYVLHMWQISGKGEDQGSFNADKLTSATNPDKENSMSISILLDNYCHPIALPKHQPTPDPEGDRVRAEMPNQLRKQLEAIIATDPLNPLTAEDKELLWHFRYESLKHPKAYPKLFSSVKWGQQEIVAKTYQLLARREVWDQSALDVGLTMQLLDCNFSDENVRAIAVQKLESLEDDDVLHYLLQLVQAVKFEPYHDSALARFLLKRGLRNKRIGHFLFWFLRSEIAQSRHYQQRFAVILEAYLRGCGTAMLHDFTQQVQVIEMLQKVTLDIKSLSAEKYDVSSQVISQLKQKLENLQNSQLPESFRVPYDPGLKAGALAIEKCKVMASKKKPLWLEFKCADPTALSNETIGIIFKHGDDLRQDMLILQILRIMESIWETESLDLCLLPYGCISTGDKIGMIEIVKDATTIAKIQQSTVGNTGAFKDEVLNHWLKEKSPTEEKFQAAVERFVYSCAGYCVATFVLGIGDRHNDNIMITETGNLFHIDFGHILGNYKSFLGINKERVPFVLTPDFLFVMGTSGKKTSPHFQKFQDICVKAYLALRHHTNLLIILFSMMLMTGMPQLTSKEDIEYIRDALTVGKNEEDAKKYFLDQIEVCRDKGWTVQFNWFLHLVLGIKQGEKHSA

[8] = Tmax in CB17/ICR-Prkdc SCID mouse at 10 mg/kg, po; type: ADME, organism-based; design: dose 10 mg/kg, route oral; conditions: in vivo
[9] = AUC (0 to 24 hrs) in CB17/ICR-Prkdc SCID mouse at 10 mg/kg, po; type: ADME, organism-based; design: time < 24 hr, dose 10 mg/kg, route oral; conditions: plasma
[10] = Drug uptake in tumor of SCID mouse xenografted with PTEN-deficient human PC3 cells at 300 mg/kg, po BID measured after 6 hrs; type: ADME, organism-based, Neoplasm, PC-3; design: dose 300 mg/kg, route oral; conditions: read-out: Drug uptake
[11] = Plasma concentration in SCID mouse xenografted with PTEN-deficient human PC3 cells at 300 mg/kg, po BID measured after 1 hr; type: ADME, organism-based, PC-3; design: dose 300 mg/kg, route oral
[12] = Oral bioavailability in CB17/ICR-Prkdc SCID mouse at 10 mg/kg; type: ADME, organism-based; conditions: in vivo
[13] = C0 in CB17/ICR-Prkdc SCID mouse at 6 mg/kg, iv; type: ADME, organism-based; design: dose 6 mg/kg, route intravenous; conditions: in vivo
[14] = Drug uptake in tumor of SCID mouse xenografted with PTEN-deficient human PC3 cells at 300 mg/kg, po BID measured after 24 hrs; type: ADME, organism-based, Neoplasm, PC-3; design: dose 300 mg/kg, route oral; conditions: read-out: Drug uptake
[15] = Plasma concentration in SCID mouse xenografted with PTEN-deficient human PC3 cells at 300 mg/kg, po BID measured after 3 hrs; type: ADME, organism-based, PC-3; design: dose 300 mg/kg, route oral
Mus musculus [16] = experiment: Inhibition of Akt phosphorylation at T308 residue in SCID mouse bearing human PTEN-deficient PC3 cells at 300 mg/kg, po BID measured after 6 hrs; type: functional; conditions: PC-3, 6 h
[17] = Terminal half life in CB17/ICR-Prkdc SCID mouse at 10 mg/kg, po; type: ADME, organism-based; design: dose 10 mg/kg, route oral; conditions: in vivo, read-out: beta t1/2 (converted)
[18] = Drug uptake in tumor of SCID mouse xenografted with PTEN-deficient human PC3 cells at 300 mg/kg, po BID measured after 3 hrs; type: ADME, organism-based, Neoplasm, PC-3; design: dose 300 mg/kg, route oral; conditions: read-out: Drug uptake
[19] = Drug uptake in tumor of SCID mouse xenografted with PTEN-deficient human PC3 cells at 300 mg/kg, po BID measured after 0.5 hrs; type: ADME, organism-based, Neoplasm, PC-3; design: dose 300 mg/kg, route oral; conditions: read-out: Drug uptake
PC-3 = experiment: Antitumor activity against PTEN-deficient human PC3 cells xenografted in SCID mouse assessed as tumor growth inhibition at 300 mg/kg, po BID for 9 days measured on day 32 relative to control; type: functional
Cytochrome P450 3A4 = Cytochrome P450 3A4 (Homo sapiens, UniProt P08684); experiment: Inhibition of human recombinant CPY3A4
Cytochrome P450 3A4, sequence (P08684 whole entry): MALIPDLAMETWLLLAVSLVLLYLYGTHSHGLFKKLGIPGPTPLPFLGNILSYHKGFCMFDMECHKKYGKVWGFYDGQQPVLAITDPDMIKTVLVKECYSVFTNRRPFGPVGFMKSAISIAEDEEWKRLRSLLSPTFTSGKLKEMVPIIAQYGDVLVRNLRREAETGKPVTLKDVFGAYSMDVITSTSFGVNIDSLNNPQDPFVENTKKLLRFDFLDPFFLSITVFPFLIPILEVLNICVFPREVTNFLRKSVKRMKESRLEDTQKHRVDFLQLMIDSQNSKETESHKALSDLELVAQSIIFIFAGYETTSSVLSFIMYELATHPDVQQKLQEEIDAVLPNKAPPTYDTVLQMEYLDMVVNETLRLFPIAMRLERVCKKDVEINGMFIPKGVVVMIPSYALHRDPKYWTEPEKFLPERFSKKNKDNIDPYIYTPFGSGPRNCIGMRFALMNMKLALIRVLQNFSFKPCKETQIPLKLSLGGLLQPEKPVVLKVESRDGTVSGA

[20] = Plasma concentration in SCID mouse xenografted with PTEN-deficient human PC3 cells at 300 mg/kg, po BID measured after 24 hrs; type: ADME, organism-based, PC-3; design: dose 300 mg/kg, route oral
[21] = Thermodynamic solubility of the compound in phosphate buffer at pH 7.4 after 16 hrs by HPLC analysis; type: physicochemical; conditions: read-out: Therm_solubility
Mus musculus [22] = experiment: Tlast in CB17/ICR-Prkdc SCID mouse at 6 mg/kg, iv; type: ADME, organism-based; design: dose 6 mg/kg, route intravenous; conditions: in vivo
[23] = Drug uptake in tumor of SCID mouse xenografted with PTEN-deficient human PC3 cells at 300 mg/kg, po BID measured after 1 hr; type: ADME, organism-based, Neoplasm, PC-3; design: dose 300 mg/kg, route oral; conditions: read-out: Drug uptake
[24] = AUC (0 to infinity) in CB17/ICR-Prkdc SCID mouse at 10 mg/kg, po; type: ADME, organism-based; design: time infinity, dose 10 mg/kg, route oral; conditions: plasma
Mus musculus [25] = experiment: Toxicity in SCID mouse bearing PTEN-deficient human PC3 cells assessed as weight loss at 300 mg/kg, po BID for 9 days; type: organism-based, PC-3; design: dose 300 mg/kg, route oral; conditions: in vivo, 216 h

AUC(0-inf) [1]: 1950 ng·h/mL | EC50 (Mus musculus [2]): 1600 nM | Cmax [3]: 641 ng/mL | IC50 [4]: 2650 nM | IC50 [5]: > 10000 nM | Drug uptake (Plasma): Active | AUC(0-t) at 24 h [6]: 1950 ng·h/mL | IC50 [7]: > 10000 nM | Tmax [8]: 0.5 h | AUC(0-t) at 24 h [9]: 846 ng·h/mL | concentration at 6 h [10]: 3.6 µM | concentration at 1 h [11]: 22 µM | bioavailability [12]: 26% | C0 [13]: 4870 ng/mL | concentration at 24 h [14]: 0.7 µM | concentration at 3 h [15]: 8 µM | half-life [17]: 3.9 h | concentration at 3 h [18]: 6 µM | concentration at 0.5 h [19]: 13 µM | IC50 (Cytochrome P450 3A4): > 40000 nM | concentration at 24 h [20]: 1.7 µM | solubility thermodynamic at 16 h [21]: 65 µM (≈ 21.1 µg/mL) | Tlast (Mus musculus [22]): 24 h | concentration at 1 h [23]: 16 µM | AUC(0-inf) [24]: 850 ng·h/mL
SMILES: Cn1c(Cc2nc(N3CCOCC3)cc(=O)[nH]2)nc2ccccc21
inhibition in vivo at 300 mg/kg (Mus musculus [16]): > 50% | T/C (PC-3): 45% | Activity (Mus musculus [25]): Non-toxic
